The results in this text go back to patent US20220104493A1, “HERBICIDAL COMPOUNDS” (SYNGENTA CROP PROTECTION AG, priority 2019, published 2022).

Assay in all cases: Post-emergence efficacy, Method A
Common to all, as to assay type: in vivo

For assay [1], the system named is Ipomoea hederacea (IPOHE). The settings on record: 500 g/Ha, 100=total damage to plant, 0=no damage, evaluated after 7 and 14 days, read-out: Control of weed species after post-emergence application, IPOHE.
The subject of assay [2] is Euphorbia heterophylla (EPHHL). The settings on record: 500 g/Ha, 100=total damage to plant, 0=no damage, evaluated after 7 and 14 days, read-out: Control of weed species after post-emergence application, EPHHL.
For assay [3], the system named is Chenopodium album (CHEAL). The conditions noted are these: 500 g/Ha, 100=total damage to plant, 0=no damage, evaluated after 7 and 14 days, read-out: Control of weed species after post-emergence application, CHEAL.
Assay [4] concerns Amaranthus palmeri (AMAPA). The conditions noted are these: 500 g/Ha, 100=total damage to plant, 0=no damage, evaluated after 7 and 14 days, read-out: Control of weed species after post-emergence application, AMAPA.
The test system of assay [5] is Lolium perenne (LOLPE). The settings on record: 500 g/Ha, 100=total damage to plant, 0=no damage, evaluated after 7 and 14 days, read-out: Control of weed species after post-emergence application, LOLPE.
The test system of assay [6] is Digitaria sanguinalis (DIGSA). The settings on record: 500 g/Ha, 100=total damage to plant, 0=no damage, evaluated after 7 and 14 days, read-out: Control of weed species after post-emergence application, DIGSA.
Assay [7] concerns Eleusine indica (ELEIN). The conditions noted are these: 500 g/Ha, 100=total damage to plant, 0=no damage, evaluated after 7 and 14 days, read-out: Control of weed species after post-emergence application, ELEIN.
Assay [8] deals with Echinochloa crus-galli (ECHCG). The settings on record: 500 g/Ha, 100=total damage to plant, 0=no damage, evaluated after 7 and 14 days, read-out: Control of weed species after post-emergence application, ECHCG.
Assay [9] has as its system Setaria faberi (SETFA). The conditions noted are these: 500 g/Ha, 100=total damage to plant, 0=no damage, evaluated after 7 and 14 days, read-out: Control of weed species after post-emergence application, SETFA.

Regarding `O=S(=O)([O-])C[n+]1ccc(-c2cnns2)cc1` [Compound A3, [4-(thiadiazol-5-yl)pyridin-1-ium-1-yl]methanesulfonate], the pest or weed control at 500 g/ha in assay [1] stood at 80%; in [2], 80%; in assay [3] it was 90%; in assay [4], 100%; in assay [5], 20%; in [6], 70%. Further, the pest or weed control at 500 g/ha in assay [7] turned out to be 50%; in assay [8], 40%; in [9], 80%.
Take `O=S(=O)([O-])CC[n+]1ccc(-c2ncns2)cc1` [Compound A5, 2-[4-(1,2,4-thiadiazol-5-yl)pyridin-1-ium-1-yl]ethanesulfonate]: the pest or weed control at 500 g/ha in assay [1] stood at 70%; in [2] it was 100%; in [3], 90%; in assay [4], 100%; in [5] it was 70%; in assay [6], 70%. Moreover, the pest or weed control at 500 g/ha in [7] was found to be 80%; in assay [8], 40%; in [9], 60%.
With `COC(=O)C[n+]1ccc(-c2cnns2)cc1` [Compound A8, methyl 2-[4-(thiadiazol-5-yl)pyridin-1-ium-1-yl]acetate bromide], the pest or weed control at 500 g/ha was found to be 10% in assay [1]; 60% in [2]; 70% in assay [3]; 0% in assay [5]; 50% in assay [6]; 30% in assay [7]. In addition, the pest or weed control at 500 g/ha amounted to 20% in assay [8] and 30% in [9].
On to `O=C(O)C[n+]1ccc(-c2cnns2)cc1` [Compound A9, 2-[4-(thiadiazol-5-yl)pyridin-1-ium-1-yl]acetic acid chloride], for which the pest or weed control at 500 g/ha in [1] came out at 20%; in [2], 10%; in assay [3] it was 0%; in assay [4], 30%; in assay [5], 0%; in assay [9], 0%.
As for `O=C(O)C[n+]1ccc(-c2nc(C(F)(F)F)cs2)cc1` [Compound A22], the pest or weed control at 500 g/ha in assay [1] turned out to be 0%; in assay [2], 40%; in [3], 10%; in assay [4], 10%; in assay [5] it was 0%; in [9], 0%.
Consider `CC(C(=O)O)[n+]1ccc(-c2ncns2)cc1` (stereo not shown) [Compound A28], for which the pest or weed control at 500 g/ha in assay [1] amounted to 70%; in assay [2], 20%; in assay [3], 80%; in [4], 100%; in [5], 30%; in assay [9], 80%.
On to `Cn1nnc(-c2cc[n+](CS(=O)(=O)[O-])cc2)n1` [Compound A35], for which the pest or weed control at 500 g/ha in [1] is 40%; in [2], 50%; in assay [3], 60%; in assay [4], 70%; in [6], 20%; in [7] it was 20%. Besides, the pest or weed control at 500 g/ha came to 40% in assay [8] and 30% in [9].
Turning to `O=S(=O)([O-])C[n+]1ccc(-c2nc(C(F)(F)F)co2)cc1` [Compound A43], the pest or weed control at 500 g/ha in [1] was determined as 30%; in assay [3], 40%; in assay [4], 40%; in assay [5] it was 10%; in assay [6] it was 30%; in assay [7], 60%. Also, the pest or weed control at 500 g/ha in assay [8] is 60%; in assay [9], 20%.
As for `O=C(O)C[n+]1ccc(-c2nc(C(F)(F)F)co2)cc1` [Compound A44], the pest or weed control at 500 g/ha in [1] turned out to be 0%; in [3], 10%; in [4], 30%; in assay [5], 10%; in assay [6], 20%; in assay [7] it was 10%. The pest or weed control at 500 g/ha in [8] was 10%; in [9], 0%.
In the case of `O=C(O)CC[n+]1ccc(-c2nc(C(F)(F)F)co2)cc1` [Compound A45], the pest or weed control at 500 g/ha in assay [1] amounted to 0%; in [3], 0%; in assay [4] it was 0%; in [5], 0%; in assay [6], 20%; in assay [7], 50%. For the same compound, the pest or weed control at 500 g/ha in assay [8] was determined as 10%; in assay [9], 0%.
In the case of `CCOC(=O)C[n+]1ccc(-c2nncs2)cc1` [Compound A49], the pest or weed control at 500 g/ha was determined as 10% in assay [1]; 50% in [3]; 10% in assay [4]; 20% in assay [5]; 50% in assay [6]; 20% in [7]. The results for the pest or weed control at 500 g/ha in assay [8] and in assay [9] were 10% and 20%, respectively.
Consider `Cc1noc(-c2cc[n+](CCC(=O)O)cc2)n1` [Compound A50], for which the pest or weed control at 500 g/ha in assay [1] is 30%; in assay [3] it was 70%; in assay [4], 40%; in [5], 50%; in assay [6] it was 90%; in assay [7], 40%. The pest or weed control at 500 g/ha in [8] came out at 20%; in [9], 80%.
For the compound `CNC(=O)c1nc(-c2cc[n+](CCCS(=O)(=O)[O-])cc2)no1` [Compound A51], the pest or weed control at 500 g/ha is 10% in [1]; 60% in assay [3]; 10% in assay [4]; 20% in [5]; 50% in assay [6]; 10% in assay [7]. In addition, the pest or weed control at 500 g/ha in [8] and in assay [9] was 30% each time.
As to `CNC(=O)c1cc(-c2cc[n+](CCCS(=O)(=O)[O-])cc2)on1` [Compound A52], the pest or weed control at 500 g/ha is 10% in [1]; 30% in [3]; 20% in [4]; 10% in assay [5]; 20% in [6]; 10% in assay [7]. Also, the pest or weed control at 500 g/ha in assay [8] and in assay [9] was 10% throughout.
In the case of `O=S(=O)([O-])C[n+]1ccc(-c2csnn2)cc1` [Compound A54], the pest or weed control at 500 g/ha in assay [1] was determined as 20%; in [3], 20%; in assay [4], 20%; in assay [5] it was 0%; in assay [6], 10%; in assay [7], 20%. For the same compound, the pest or weed control at 500 g/ha in [8] and in assay [9] was 0% throughout.
As to `O=C(O)CC[n+]1ccc(-c2ncns2)c(F)c1` [Compound A55], the pest or weed control at 500 g/ha in [1] stood at 30%; in [2] it was 10%; in [3], 40%; in assay [4] it was 50%; in [5], 30%; in [9] it was 20%.
As to `O=C(O)CC[n+]1ccc(-c2ncns2)c(Cl)c1` [Compound A56], the pest or weed control at 500 g/ha in [1] came out at 30%; in assay [2] it was 100%; in assay [3] it was 30%; in assay [4] it was 60%; in [5], 10%; in [9], 30%.
As to `CS(=O)(=O)c1c[n+](CCC(=O)O)ccc1-c1ncns1` [Compound A93, 3-[3-methylsulfonyl-4-(1,2,4-thiadiazol-5-yl)pyridin-1-ium-1-yl]propanoic acid bromide], the pest or weed control at 500 g/ha in assay [1] came out at 30%; in [2], 30%; in assay [3] it was 30%; in [4], 60%; in assay [5], 10%; in assay [7], 30%. In addition, the pest or weed control at 500 g/ha in assay [8] came out at 40%; in assay [9], 30%.
